Laboratory results as given in article PMC12349723, “Computationally accelerated identification of P-glycoprotein inhibitors” (PLOS One, 2025).
Where “and” joins values, the source holds several entries; their conditions need not be identical. Equal entries are not always repeated. Entries after “also recorded” stand apart in the source; their conditions may differ.

What was measured:
P-gp [1] = target: T1, P-gp (Homo sapiens, UniProt P08183); assay: Daunorubicin accumulation (fluorescence) assay in DU145-TXR cells; assay type: cell-based; conditions: for Significance (DAU + compound vs DAU alone): Student's T test of the mean; for Effect on DAU fluorescence / intracellular DAU retention: DU145-TXR, 10 µM compound + 10 µM DAU, 2 h
T1 construct: The MDR, P-gp overexpressing DU145-TXR cells were maintained under positive selection pressure; endogenous in cells; host or cells: DU145-TXR (paclitaxel-resistant sub-line of DU145 human prostate cancer cells)
T1 sequence (P08183 whole entry): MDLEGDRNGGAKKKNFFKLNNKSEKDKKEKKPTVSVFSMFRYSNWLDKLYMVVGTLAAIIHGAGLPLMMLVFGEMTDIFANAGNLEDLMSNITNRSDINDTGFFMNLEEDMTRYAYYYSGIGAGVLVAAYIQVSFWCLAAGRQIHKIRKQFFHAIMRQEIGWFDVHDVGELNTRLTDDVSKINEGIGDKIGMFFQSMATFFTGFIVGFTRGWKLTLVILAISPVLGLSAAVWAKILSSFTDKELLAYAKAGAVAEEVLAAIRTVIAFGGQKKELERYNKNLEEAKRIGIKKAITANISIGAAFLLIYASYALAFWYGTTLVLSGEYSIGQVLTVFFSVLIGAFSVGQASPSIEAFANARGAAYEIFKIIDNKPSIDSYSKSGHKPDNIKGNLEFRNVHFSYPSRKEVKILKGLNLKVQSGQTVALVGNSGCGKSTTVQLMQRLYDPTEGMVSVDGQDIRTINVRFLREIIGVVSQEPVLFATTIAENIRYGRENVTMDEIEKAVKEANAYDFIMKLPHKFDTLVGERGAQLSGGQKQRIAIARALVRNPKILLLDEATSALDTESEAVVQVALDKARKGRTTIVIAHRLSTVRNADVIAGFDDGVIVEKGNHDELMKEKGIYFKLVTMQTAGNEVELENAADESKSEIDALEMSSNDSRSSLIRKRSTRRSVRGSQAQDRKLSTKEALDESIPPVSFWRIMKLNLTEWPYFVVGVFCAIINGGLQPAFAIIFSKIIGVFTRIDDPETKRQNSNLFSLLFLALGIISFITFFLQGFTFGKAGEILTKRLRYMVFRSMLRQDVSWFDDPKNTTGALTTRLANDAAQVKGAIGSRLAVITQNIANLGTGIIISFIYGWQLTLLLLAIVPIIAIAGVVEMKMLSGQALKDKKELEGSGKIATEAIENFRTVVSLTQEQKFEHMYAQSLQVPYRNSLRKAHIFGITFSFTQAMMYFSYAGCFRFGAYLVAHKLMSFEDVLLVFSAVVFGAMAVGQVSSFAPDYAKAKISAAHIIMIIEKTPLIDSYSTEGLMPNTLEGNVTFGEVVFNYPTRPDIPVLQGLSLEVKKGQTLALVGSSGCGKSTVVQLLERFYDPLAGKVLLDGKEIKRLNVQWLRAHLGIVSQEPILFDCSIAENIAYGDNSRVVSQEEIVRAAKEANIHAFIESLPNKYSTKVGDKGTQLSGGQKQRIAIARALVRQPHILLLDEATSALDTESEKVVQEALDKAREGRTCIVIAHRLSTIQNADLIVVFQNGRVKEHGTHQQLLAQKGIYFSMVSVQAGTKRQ
Method: These assays are based upon those reported in [9]. DU145-TXR cells were seeded in 96 well plates in complete RPMI medium at 15,000 cells per well. Cells were allowed to grow for 48 hours in a humidified incubator at 37 °C and 5% CO2. After 48 hours, media was replaced with fresh complete RPMI medium. Cells were treated with 10 µM of experimental compound with or without 10 µM daunorubicin (DAU). After a 2-hour incubation at 37 °C and 5% CO2 in a humidified incubator, media was removed with a vacuum aspirator, and cells were washed twice with ice-cold phosphate buffered saline (PBS) solution. Cells were lysed in PBS containing 0.5% SDS and 0.5% Triton X-100 and shaken on an Orbital Shaker for 10 min at 500 rpm. […] Data are the mean ± one standard deviation from three independent experiments, 3 samples per experiment. Statistical significance was determined with a Student’s T test in GraphPad prism.
Δ DAU Fluorescence= Fluorescence of (Compound+DAU) treated cells/Fluorescence of DAU treated cells
These assays used the P-gp highly overexpressing DU145-TXR cell line. In this assay, the intrinsic fluorescence of DAU was used to quantify its relative concentration in the cell. An increase in fluorescence correlates with an increase in the intracellular accumulation of DAU. […] Cells were treated with 10 µM of experimental compound with or without 10 µM DAU. After a 2-hour incubation, cells were washed and lysed, and the total fluorescence of DAU in each well was quantified.
Fig 5 Change in fluorescence of DAU in the presence of experimental compounds. Fold change in fluorescence of the P-gp substrate Daunorubicin (DAU) in the presence or absence of experimental compounds or known P-gp modulators. Cells were treated with 10 µM compound in the presence or absence of 10 µM DAU. After washing and lysing the cells, the intracellular DAU fluorescence was measured and expressed as a fold change relative to the fluorescence of DU145-TXR cells treated with DAU alone. […] Three samples per trial, three independent trials. Significance was determined using a Student’s T test of the mean by comparing fluorescence of DAU and compound to that of DAU alone; P > 0.05 = N.S., P < 0.05 = *, P < 0.01 = **, P < 0.001 = ***, P < 0.0001 = ****. Data also shown in S4 Fig.

[2] = system: HFL1 (human lung fibroblast) cell line; assay: MTT viability assay, inherent toxicity in non-cancerous HFL1 cells; assay type: cell-based; set-up: Mean % Survival: tested at 15 µM; conditions: for Inherent toxicity to non-cancerous HFL1 cells: 15 µM compound, 48 h, MTT, 20% reduction in viability = maximum acceptable toxicity; for Mean % Survival / % Survival (individual sample): HFL1 cells, compound alone; for Mean % Survival: mean of 8 samples; for % Survival (individual sample): single samples (trials 1-2, samples 1-4)
Method: The chemotherapeutic sensitive DU145 human prostate cancer cells and the multidrug resistant sub-line, DU145-TXR, were generous gifts from Dr. Evan Keller (University of Michigan, Ann Arbor, MI). The MDR, P-gp overexpressing DU145-TXR cells were maintained under positive selection pressure by supplementing complete medium with 10 nM paclitaxel (Acros Organics, NJ). […] The MDR, P-gp overexpressing A2780-ADR cell line was maintained under positive selection pressure by supplementing complete medium with 100 nM doxorubicin (Fisher Scientific, NJ). The non-cancerous HFL1 (human lung fibroblast) cell line cell line was a generous gift from Dr. Robert Harrod (Southern Methodist University, Dallas, TX) and was maintained in complete F12K media consisting of F12K with 10% fetal bovine serum, 100 U/mL penicillin, and 100 µg/mL streptomycin (Gibco). Flasks and 96 well plates that were used with the non-cancerous line HFL1 were pre-treated with 0.1 mg/ml Collagen Type 1 (Gibco) and rinsed with PBS (Fisher).
MTT assays measure the reduction of yellow, water soluble 3-(4,5-dimethylthiazol-2-yl)-2,5-diphenyltetrazolium bromide (MTT) to blue, insoluble formazan crystals by cellular reductase processes in living cells. Cells were trypsinized from monolayers and seeded in complete medium in 96 well plates. Cancerous cell lines (DU145, DU145-TXR, A2780, A2780-ADR) were seeded at 3,000 cells per well in complete RPMI medium. The non-cancerous HFL1 line was seeded at 4,000 cells per well in complete F12K medium, in collagen-treated plates (Collagen Type 1, Gibco). Cells were incubated with experimental compounds for 48 hours at 37 °C and 5% CO2 in a humidified incubator. At 48 hours, MTT was added (20 µL/well of 5 mg/mL MTT in PBS) to each well. After incubation for 4 hours, the media was removed, and the formazan crystals were dissolved in 100 µL DMSO per well. Plates containing the semi-adherent A2780 or A2780-ADR lines were spun at 1400 rpm for 3 minutes prior to aspiration of media, and the addition of DMSO. Plates were shaken for 10 minutes at 500 rpm on an Orbital shaker (LabDoctor from MidSci, St Louis, MO). The absorbance was measured at 570 nm using a Bio-Tek Cytation 5 (Bio-Tek, Winooski, VT). The measured absorbance value was correlated with the number of metabolically active cells in that well, corrected for absorbance of media. The percent of cell viability (termed ‘survival’ here) was calculated as a percentage of survival of the control condition, which refers to vehicle-treated (DMSO as vehicle) cells, or vehicle-and-chemotherapeutic-treated cells, if testing a compound’s ability to re-sensitize cells to a chemotherapeutic. Percent survival was calculated using the following equation:
% Survival=100 × absorbance of experimental cells/mean absorbance of control treated cells
For DU145-TXR, DU145, HFL1 and A2780 cells – data are the mean ± one standard deviation, 8 samples per compound, from at least two independent trials per compound. […] For A2780-ADR cells, data are the mean ± one standard deviation with 12 samples per compound, from at least two independent trials per compound.
If a P-gp inhibitor is intrinsically toxic to non-cancerous cells, it is more likely to be participating in undesirable off-target interactions. The top compounds from the screens shown above were screened for inherent toxicity using the non-cancerous HFL1 (human lung fibroblast) cell line. HFL1 cells were incubated with 15 µM compound for 48 hours, after which cell viability was assessed using MTT cell viability assays. A 20% reduction in cell viability (compared to DMSO-treated cells) was considered the maximum acceptable toxicity (see dotted line). The chemotherapeutic daunorubicin was included as a positive control for toxicity.
The top compounds from previous screens were tested against the non-cancerous HFL1 cell line.

P-gp [3] = system: P-gp; set-up: method as in earlier work; conditions: ref [66-68]; cited from earlier work

| Significance (DAU + compound vs DAU alone) (P-gp [1]) | Structure (SMILES) | Inherent toxicity to non-cancerous HFL1 cells [2] | Mean % Survival [2] | % Survival (individual sample) [2] | Effect on DAU fluorescence / intracellular DAU retention (P-gp [1]) | P-gp Substrate? (known transport substrate of P-gp) (P-gp [3]) |
| --- | --- | --- | --- | --- | --- | --- |
| N.S. (P > 0.05 = N.S.) | Cn1cnnc1SCc1c(C(=O)O)nnn1-c1nonc1N [Compound 59, Cn1cnnc1SCc1c(nnn1-c1nonc1N)C(O)=O] |  |  |  |  |  |
| * (P < 0.05 = *) | Cc1onc(-c2ccccc2)c1-c1nnc(Cn2cnc3c(oc4ccccc43)c2=O)o1 [Compound 78, Cc1onc(c1-c1nnc(Cn2cnc3c4ccccc4oc3c2=O)o1)-c1ccccc1] | either ‘non-toxic’ or ‘within acceptable limits’ of toxicity | 99.6% | 102% | significant decrease in fluorescence; also recorded: did not cause an increase in intracellular DAU retention |  |
| **** (P < 0.0001 = ****) | O=S(=O)(CCSc1nnc(-c2ccccc2)c2ccccc12)c1ccccc1 [Compound 96, O=S(=O)(CCSc1nnc(-c2ccccc2)c2ccccc12)c1ccccc1] | either ‘non-toxic’ or ‘within acceptable limits’ of toxicity | 92.7% | 91% |  |  |
| N.S. (P > 0.05 = N.S.) | Cc1onc(-c2ccccc2)c1-c1nnc(Cn2cnc3ccccc3c2=O)o1 [Compound 111, Cc1onc(c1-c1nnc(Cn2cnc3ccccc3c2=O)o1)-c1ccccc1] | either ‘non-toxic’ or ‘within acceptable limits’ of toxicity | 96.0% | 92% | did not cause an increase in intracellular DAU retention |  |
|  | O=C(NCc1cccc(F)c1)c1nnn2c1Sc1c(C(=O)NCc3cccc(F)c3)nnn1CC2 [Compound 122, Fc1cccc(CNC(=O)c2nnn3CCn4nnc(C(=O)NCc5cccc(F)c5)c4Sc23)c1] | either ‘non-toxic’ or ‘within acceptable limits’ of toxicity | 79.7% |  |  |  |
|  | O=C(c1nc(-c2ccccn2)no1)N1CCN(c2nsc3ccccc23)CC1 [Compound 124, O=C(N1CCN(CC1)c1nsc2ccccc12)c1nc(no1)-c1ccccn1] | either ‘non-toxic’ or ‘within acceptable limits’ of toxicity | 84.6% | 89% |  |  |
| **** (P < 0.0001 = ****) | COc1cc2c(cc1OC)CN(CCc1ccc(NC(=O)c3cc(OC)c(OC)cc3NC(=O)c3cnc4ccccc4c3)cc1)CC2 [Tariquidar, reference compound] |  |  |  |  | Yes |

| Structure (SMILES) | Significance (DAU + compound vs DAU alone) (P-gp [1]) | Inherent toxicity to non-cancerous HFL1 cells [2] | Mean % Survival [2] | % Survival (individual sample) [2] | Effect on DAU fluorescence / intracellular DAU retention (P-gp [1]) | P-gp Substrate? (known transport substrate of P-gp) (P-gp [3]) |
| --- | --- | --- | --- | --- | --- | --- |
| O=C(c1nc(-c2ccc3cc[nH]c3c2)no1)N1CCN(c2nsc3ccccc23)CC1 [Compound 70, O=C(N1CCN(CC1)c1nsc2ccccc12)c1nc(no1)-c1ccc2cc[nH]c2c1] | * (P < 0.05 = *) | either ‘non-toxic’ or ‘within acceptable limits’ of toxicity | 81.4% | 81% and 85% |  |  |
| O=S(=O)(Cc1nc2ccccc2n1CC(O)c1ccc(Cl)cc1)c1ccccc1 (stereo not shown) [Compound 97, OC(Cn1c(CS(=O)(=O)c2ccccc2)nc2ccccc12)c1ccc(Cl)cc1] | **** (P < 0.0001 = ****) | either ‘non-toxic’ or ‘within acceptable limits’ of toxicity | 84.9% | 85% |  |  |
| COc1cccc(N2CCN(c3ccc4nnc(CCC(=O)Nc5ccc(F)c(F)c5)n4n3)CC2)c1 [Compound 101, COc1cccc(c1)N1CCN(CC1)c1ccc2nnc(CCC(=O)Nc3ccc(F)c(F)c3)n2n1] | **** (P < 0.0001 = ****) | either ‘non-toxic’ or ‘within acceptable limits’ of toxicity | 100.9% | 103% |  |  |
| Cc1ccc(-c2noc(-c3cn(Cc4ccc(NS(=O)(=O)c5ccccc5F)cc4)cn3)n2)cc1 [Compound 103, Cc1ccc(cc1)-c1noc(n1)-c1cn(Cc2ccc(NS(=O)(=O)c3ccccc3F)cc2)cn1] | ** (P < 0.01 = **) | either ‘non-toxic’ or ‘within acceptable limits’ of toxicity | 93.4% |  |  |  |
